Results: patent publication US7498349B2, “Biaryl compounds having anti-infective activity” (Genesoft Pharmaceuticals, Inc., priority 2002, dated 2009)

Columns and labels:
[1] = tested on: E. coli ATCC 25922; experiment: MIC, NCCLS broth microdilution assay; format: cell-based, Escherichia coli; details: E. coli ATCC 25922
[2] = tested on: S. aureus ATCC 33591; experiment: MIC, NCCLS broth microdilution assay; format: cell-based, Staphylococcus aureus; details: S. aureus ATCC 33591
Source text: (§1) In vitro biological activity data were collected for a variety of microorganisms, including Bacillus cereus (ATCC 11778), Staphylococcus aureus (ATCC 33591; ATCC 27660, a methicillin resistant strain (MRSA); ATCC 13709, a methicillin sensitive strain (MSSA)), Escherichia coli (ATCC 25922), Enterococcus faecalis (ATCC 29212), Streptococcus pneumoniae (ATCC 49619; ATCC 51422, a penicillin resistant strain (PRSP)), Enterococcus faecium (ATCC 51559, a vancomycin resistant strain (VRE)), and Staphylococcus epidermidis (ATCC 12228).
(§2) The minimal inhibition concentration (MIC) of these compounds was determined using the National Committee for Clinical Laboratory Standards (NCCLS) broth microdilution assay in microtiter plates, as set forth in: (1) the guidelines of the National Committee for Clinical Laboratory Standards (NCCLS) Document M7-A4 (NCCLS, 1997); (2) the guidelines of the National Committee for Clinical Laboratory Standards (NCCLS) Document M11-A4 (NCCLS, 1997); and (3) the guidelines and reference method of the National Committee for Clinical Laboratory Standards (NCCLS) Document M27 -T (NCCLS, 1995).

[3] = tested on: S. aureus ATCC 27660; experiment: MIC, NCCLS broth microdilution assay; format: cell-based, Staphylococcus aureus; details: S. aureus ATCC 27660, methicillin resistant strain (MRSA)
Source text: as §1, §2

[4] = tested on: S. aureus ATCC 13709; experiment: MIC, NCCLS broth microdilution assay; format: cell-based, Staphylococcus aureus; details: S. aureus ATCC 13709, methicillin sensitive strain (MSSA)
[5] = tested on: S. pneumoniae ATCC 49619; experiment: MIC, NCCLS broth microdilution assay; format: cell-based, Streptococcus pneumoniae; details: S. pneumoniae ATCC 49619
[6] = tested on: E. faecalis ATCC 29212; experiment: MIC, NCCLS broth microdilution assay; format: cell-based, Enterococcus faecalis; details: E. faecalis ATCC 29212
[7] = tested on: C. albicans ATCC 38247; experiment: MIC, antifungal assay; format: cell-based, Candida albicans; details: C. albicans ATCC 38247
Source text: In vitro biological activity data were collected for a variety of microorganisms, including Bacillus cereus (ATCC 11778), Staphylococcus aureus (ATCC 33591; ATCC 27660, a methicillin resistant strain (MRSA); ATCC 13709, a methicillin sensitive strain (MSSA)), Escherichia coli (ATCC 25922), Enterococcus faecalis (ATCC 29212), Streptococcus pneumoniae (ATCC 49619; ATCC 51422, a penicillin resistant strain (PRSP)), Enterococcus faecium (ATCC 51559, a vancomycin resistant strain (VRE)), and Staphylococcus epidermidis (ATCC 12228). Additionally, antifungal activity data were collected for Candida albicans (ATCC 38247).
The minimal inhibition concentration (MIC) of these compounds was determined using the National Committee for Clinical Laboratory Standards (NCCLS) broth microdilution assay in microtiter plates, as set forth in: (1) the guidelines of the National Committee for Clinical Laboratory Standards (NCCLS) Document M7-A4 (NCCLS, 1997); (2) the guidelines of the National Committee for Clinical Laboratory Standards (NCCLS) Document M11-A4 (NCCLS, 1997); and (3) the guidelines and reference method of the National Committee for Clinical Laboratory Standards (NCCLS) Document M27 -T (NCCLS, 1995). For antifungal assays, the method recommended in Murray, PR., 1995 Manual of Clinical Microbiology (ASM Press, Washington, D.C.), was employed.

[8] = tested on: B. cereus ATCC 11778; experiment: MIC, NCCLS broth microdilution assay; format: cell-based, Bacillus cereus; details: B. cereus ATCC 11778

SMILES | Minimum Inhibitory Concentration (MIC) [1] | Minimum Inhibitory Concentration (MIC) [2] | Minimum Inhibitory Concentration (MIC) [3] | Minimum Inhibitory Concentration (MIC) [4] | Minimum Inhibitory Concentration (MIC) [5] | Minimum Inhibitory Concentration (MIC) [6] | Minimum Inhibitory Concentration (MIC) [7] | Minimum Inhibitory Concentration (MIC) [8]
CN(C)CCCNc1ncccc1C(=O)Nc1ccc(-c2cc3ccccc3s2)nc1 [Compound A-74] | >32 mg/L | ++ (4 < MIC < 12) | + (12 ≦ MIC ≦ 32) | ++ (4 < MIC < 12) | + (12 ≦ MIC ≦ 32) | ++ (4 < MIC < 12) | + (12 ≦ MIC ≦ 32) | + (12 ≦ MIC ≦ 32)
CCN(CC)CCCNc1cc(Cl)ccc1C(=O)Nc1ccc(-c2cc3ccccc3o2)cc1 [Compound A-23] | >32 mg/L | +++ (MIC ≦ 4) | +++ (MIC ≦ 4) | +++ (MIC ≦ 4) | + (12 ≦ MIC ≦ 32) | +++ (MIC ≦ 4) | + (12 ≦ MIC ≦ 32) | +++ (MIC ≦ 4)
CN(CCCN)CCCNc1snc(C(=O)Nc2ccc(-c3cc4ccccc4s3)nc2)c1Cl [Compound A-71] | +++ (MIC ≦ 4) | +++ (MIC ≦ 4) | +++ (MIC ≦ 4) | +++ (MIC ≦ 4) | + (12 ≦ MIC ≦ 32) | +++ (MIC ≦ 4) | ++ (4 < MIC < 12) | +++ (MIC ≦ 4)
O=C(Nc1ccc(-c2cc3ccccc3s2)cc1)c1cccnc1NCCN1CCNCC1 [Compound A-48] | >32 mg/L | +++ (MIC ≦ 4) | +++ (MIC ≦ 4) | +++ (MIC ≦ 4) | >32 mg/L | >32 mg/L | >32 mg/L | + (12 ≦ MIC ≦ 32)
Cc1cc(NC(=O)c2cccnc2NCCN2CCNCC2)ccc1-c1cc2ccccc2o1 [Compound A-28] | >32 mg/L | ++ (4 < MIC < 12) | ++ (4 < MIC < 12) | ++ (4 < MIC < 12) | + (12 ≦ MIC ≦ 32) | ++ (4 < MIC < 12) | + (12 ≦ MIC ≦ 32) | + (12 ≦ MIC ≦ 32)
CN(CCCN)CCCNc1ncccc1C(=O)Nc1ccc(-c2cc3ccccc3s2)nc1 [Compound A-76] | + (12 ≦ MIC ≦ 32) | ++ (4 < MIC < 12) | +++ (MIC ≦ 4) | +++ (MIC ≦ 4) | + (12 ≦ MIC ≦ 32) | ++ (4 < MIC < 12) | + (12 ≦ MIC ≦ 32) | + (12 ≦ MIC ≦ 32)
NCCCCNc1ncccc1C(=O)Nc1ccc(-c2cc3ccccc3s2)nc1 [Compound A-75] | >32 mg/L | +++ (MIC ≦ 4) | +++ (MIC ≦ 4) | +++ (MIC ≦ 4) | + (12 ≦ MIC ≦ 32) | +++ (MIC ≦ 4) | >32 mg/L | +++ (MIC ≦ 4)
Cc1ccc2nc(-c3ccc(NC(=O)c4nsc(NCCCN(C)C)c4Cl)cc3)sc2c1 [Compound A-54] | >32 mg/L | +++ (MIC ≦ 4) | +++ (MIC ≦ 4) | +++ (MIC ≦ 4) | + (12 ≦ MIC ≦ 32) | +++ (MIC ≦ 4) | +++ (MIC ≦ 4) | +++ (MIC ≦ 4)
NCCOCCOCCNc1cc(Cl)ccc1C(=O)Nc1ccc(-c2cc3ccccc3o2)cc1 [Compound A-24] | >32 mg/L | + (12 ≦ MIC ≦ 32) | + (12 ≦ MIC ≦ 32) | + (12 ≦ MIC ≦ 32) | >32 mg/L | + (12 ≦ MIC ≦ 32) | >32 mg/L | >32 mg/L
CN(C)CCCNc1snc(C(=O)Nc2ccc(-c3cc4ccccc4s3)nc2)c1Cl [Compound A-67] | >32 mg/L | +++ (MIC ≦ 4) | +++ (MIC ≦ 4) | +++ (MIC ≦ 4) | >32 mg/L | +++ (MIC ≦ 4) | +++ (MIC ≦ 4) | +++ (MIC ≦ 4)
O=C(Nc1ccc(-c2cc3ccccc3[nH]2)cc1)c1nsc(NCCN2CCOCC2)c1Cl [Compound A-60] | >32 mg/L | >32 mg/L | >32 mg/L | >32 mg/L | >32 mg/L | >32 mg/L | >32 mg/L | >32 mg/L
O=C(Nc1ccc(-c2cc3ccccc3[nH]2)cc1)c1nsc(NCCN2CCNCC2)c1Cl [Compound A-59] | >32 mg/L | + (12 ≦ MIC ≦ 32) | ++ (4 < MIC < 12) | ++ (4 < MIC < 12) | + (12 ≦ MIC ≦ 32) | +++ (MIC ≦ 4) | +++ (MIC ≦ 4) | + (12 ≦ MIC ≦ 32)
